What was measured:
[1] = Procedure for determining photostability (bleaching in vitro, continuous 785 nm irradiation); format: physicochemical
Description: 4C): Bleaching in vitro: Capillaries filled with 2.5 μM solutions in serum were continuously irradiated using a 785 nm laser (100 mW/cm^2) and frames were acquired for 20 minutes. Bleaching kinetics were extracted by analyzing the mean counts in an ROI overtime
Imaging was performed on a custom-built setup. LUMICS laser unit LU0785DLU250-S70AN03 (25 W) 785 nm″ was used for excitation. Laser was externally controlled using a LUMICS laser diode control system. Laser output was coupled in a 4×1 fan-out fiber-optic bundle (THORLABS BF46LSO1) of 600 μm core diameter for each optical path. The output from the fiber was fixed in an excitation cube (THORLABS KCB1EC/M), reflected off of a mirror (THORLABS BBE1-E03), and passed through a positive achromat (THORLABS AC254-050-B), SP filter (THORLABS FESH800) and an engineered diffuser (THORLABS ED1-S20-MD or ED1-S50-MD) to provide uniform illumination over the working area. In a typical experiment, the excitation flux in the field of view was adjusted to be close to 100 mWcm^−2. Power density was determined using a THORLABS energy meter console PM100D in combination with a THORLABS S130C sensor (measurement uncertainty of ±3%). The working area was covered by blackout fabric (THORLABS BK5). Emitted light was directed through two filters (THORLABS FELH800) screwed onto a EDMUND OPTICS Acktar Hexa-Black 25 mm noise reduction extension tube, via a C-mount camera lens (NAVITAR SWIR-35) onto an NIR-camera (PCO Edge 4.2 or Prime BSI). The software μManager was used to externally control the camera. The assembly was partially enclosed to avoid excess light while enabling manipulation of the field of view during operation.
For each dye (conjugate), solutions in H2O and FBS with an OD (785 nm)<1.0 in a 1 cm cuvette (HELLMA 115B-QS) were prepared. […] In order to be able to make useful comparison between different samples and experiments, the time axis was converted into a number of absorbance events by multiplication with the “absorptions per molecule per second”.

[2] = tested on: MDA-MB-468 cells; test: In vivo distribution of NIR-fluorescent Panitumumab conjugates in tumor bearing mice; details: 24 hrs after intravenous injection; 3 μg or 100 μg dose
Description: FIG. 5: Comparing Pan-sNIR (NIR-fluorescent Panitumumab) and Pan-IRDye800CW in tumor bearing mice post intraveneous injection. Mice were generated by subcutaneous implantation of MDA-MB-468 cells.

more photostable than NIR, IRDye®8000W ([1]; fetal bovine serum (FBS))	more stable than ICG ([1]; fetal bovine serum (FBS))	bleaching slower than NIR, ICG and IRDye®8000W ([1]; water)	Compound	tumor signal than/over the liver [2]
2.5 times	1.6 times	3.5 times	C#CCCCCNC(=O)C(=C\C=C\C1=[N+](CCCCS(=O)(=O)[O-])c2ccc(S(=O)(=O)[O-])cc2C1(C)C)/C=C/C=C1/N(CCCCS(=O)(=O)[O-])c2ccc(S(=O)(=O)[O-])cc2C1(C)C.[Na+].[Na+].[Na+] [sNIR, sodium 2-((1E,3Z,5E)-7-((E)-3,3-dimethyl-5-sulfonato-1-(4-sulfonatobutyl)indolin-2-ylidene)-4-(hex-5-yn-1-ylcarbamoyl)hepta-1,3,5-trien-1-yl)-3,3-dimethyl-1-(4-sulfonatobutyl)-3H-indol-1-ium-5-sulfonate]	
			Pan-8000W: Panitumumab-IRDye800, prepared in a similar fashion [reference compound]	1.4-1.8 ×

— patent US20260117070A1, “NEAR-INFRARED FLUORESCENT HEPTAMETHINE DYE CONJUGATES WITH FAVORABLE BLEACHING PROPERTIES” (HELMHOLTZ ZENTRUM MÜNCHEN DEUTSCHES FORSCHUNGSZENTRUM FÜR …, priority 2022, published 2026)
